Experimental data: US12364786B2, “Polymer particles” (Terumo Corporation, priority 2016, dated 2025)

Assay: In vitro elution of pharmaceutical agents from particles (Sotax USP 4 dissolution apparatus, HPLC)
Assay type: physicochemical
Procedure: For in vitro elution testing, drug was loaded on 1 mL samples of microspheres of approximately 400±100 micron diameter. Microsphere aliquots were loaded with 37.5 mg of doxorubicin in water or 50 mg of irinotecan in citrate buffer. Samples were incubated for 18 hours. Drug was eluted from the samples in a Sotax USP 4 dissolution apparatus. Samples were taken at incremental time intervals and analyzed by high performance liquid chromatography. Peak area was recorded (FIG. 4). Percent and concentration of drug eluted were calculated for each time interval.

[1] = 1 mL microsphere sample (approximately 400±100 micron diameter) loaded with 37.5 mg doxorubicin in water
[2] = 1 mL microsphere sample (approximately 400±100 micron diameter) loaded with 50 mg irinotecan in citrate buffer

amount of drug eluted over the first day [1]	percent of drug eluted over the first day [1]	amount of drug eluted over the first day [2]	percent of drug eluted over the first day [2]	Compound
24.5 mg	65%	–	–	COc1cccc2c1C(=O)c1c(O)c3c(c(O)c1C2=O)C[C@@](O)(C(=O)CO)C[C@@H]3O[C@H]1C[C@H](N)[C@H](O)[C@H](C)O1 [doxorubicin]
–	–	over 45 mg	95%	CCc1c2c(nc3ccc(OC(=O)N4CCC(N5CCCCC5)CC4)cc13)-c1cc3c(c(=O)n1C2)COC(=O)[C@]3(O)CC [irinotecan]
